From paper PMC9942557, “Bolaamphiphile Analogues of 12-bis-THA Cl2 Are Potent Antimicrobial Therapeutics with Distinct Mechanisms of Action against Bacterial, Mycobacterial, and Fungal Pathogens” (mSphere, 2022)
Like-named read-outs stand apart in the source and are kept apart here.

What was measured:
Klebsiella pneumoniae M6 = assay: Broth microdilution MIC; type: cell-based
[1] = test system: Acinetobacter baumannii AYE; assay: Broth microdilution MIC; type: cell-based
[2] = test system: Acinetobacter baumannii ATCC 17978; assay: Broth microdilution MIC; type: cell-based
[3] = test system: Pseudomonas aeruginosa PAO1; assay: Broth microdilution MIC; type: cell-based
[4] = test system: Pseudomonas aeruginosa NCTC 13437; assay: Broth microdilution MIC; type: cell-based
[5] = test system: EMR Staphylococcus aureus 16 NCTC 13277; assay: Broth microdilution MIC; type: cell-based
[6] = test system: VS Enterococcus faecalis NCTC 775; assay: Broth microdilution MIC; type: cell-based
[7] = test system: VR Enterococcus faecalis NCTC 12201; assay: Broth microdilution MIC; type: cell-based
C. albicans 3179 = assay: Broth microdilution MIC; type: cell-based, Candida albicans; conditions: C. albicans 3179
C. krusei 3876 = assay: Broth microdilution MIC; type: cell-based
C. parapsilosis 3209 = assay: Broth microdilution MIC; type: cell-based
C. parapsilosis = assay: Broth microdilution MIC; type: cell-based
M. tuberculosis Bleupan [8] = assay: microbe, parasite or virus in culture; type: cell-based, Mycobacterium tuberculosis
[9] = Patch-clamp conductance in model membranes; conditions: bilayers composed of DPhPG
Protocol: Giant unilamellar vesicles (GUVs) composed of DiPhytanoly PhosphatidylGlycerol (DPhPG) were prepared in the presence of 1 M sorbitol by the electroformation method in an indium-tin oxide (ITO)-coated glass chamber connected to the Nanion Vesicle Prep Pro setup (Nanion Technologies GmbH, Munich, Germany) using a 3-V peak-to-peak AC voltage at a frequency of 5 Hz for 140 min at 37°C ([30][–][32]). Bilayers were formed by adding the GUV solution to a buffer containing 250 mM KCl, 50 mM MgCl2, and 10 mM HEPES (pH 7.00) onto an aperture in a borosilicate chip (Port-a-Patch; Nanion Technologies) and applying 7,000 to 9,000 Pa negative pressure, resulting in a solvent-free membrane with a resistance in the GΩ range. […] After formation, a small amount of bolalipid stock solution (in water) was added to 50 μL of buffer solution in order to obtain its active concentration. All the experiments were carried out with a positive holding potential of 50 mV. […] For all the experiments, a minimum of 6 concordant repeats were done. Current traces were recorded at a sampling rate of 50 kHz using an EPC-10 amplifier from HEKA Elektronik (Lambrecht, Germany). The system was computer controlled by PatchControl software (Nanion) and GePulse (Michael Pusch, Genoa, Italy [http://users.ge.ibf.cnr.it/pusch/software-mik.htm]). […]

Dynamic light scattering = type: physicochemical; conditions: 0.36 mM in water
Protocol: Stock solutions of bolalipids were prepared by dispersing the powder in ultrapure water, then stirring vigorously by vortexing, and sonicating in a 40°C bath sonicator for 20 min. The concentration of each stock solution corresponds to the highest solubility achieved in water for each bolalipid, using the method described above. DLS experiments were performed on a Malvern Zetasizer Nano (Malvern Instruments, Worcestershire, UK) in back-scattering mode at 20°C. There were three independent measurements of each sample and 12 runs for each measurement, with 10 s taken for each run. The attenuator index and measurement position were automatically adjusted. Fifty microliters of each sample was transferred into polystyrene semi-microcuvettes for determination of UV and visible wavelengths (Sarstedt).

[10] = test system: Gram-negative bacteria (avg); assay: Selectivity index (toxicity/potency); type: cell-based; conditions: ratio of average toxicity (HEK293 and HeLa) to average potency
Text: TABLE 3 Selectivity indices of bolaamphiphiles | column: Selectivity of^a: / 12-bis-THA Cl2; Selectivity of^a: / Dequalinium; Selectivity of^a: / Quino-bola; Selectivity of^a: / Penta-bola; Selectivity of^a: / Hepta-bola; Selectivity of^a: / Octa-bola; Selectivity of^a: / Octa-C10; Selectivity of^a: / Octa-C8; Selectivity of^a: / Octa-C6

[11] = test system: Gram-positive bacteria (avg); assay: Selectivity index (toxicity/potency); type: cell-based; conditions: ratio of average toxicity (HEK293 and HeLa) to average potency
M. tuberculosis Bleupan [12] = assay: Selectivity index (toxicity/potency); type: cell-based, Mycobacterium tuberculosis; conditions: ratio of average toxicity (HEK293 and HeLa) to potency
Text: TABLE 3 Selectivity indices of bolaamphiphiles | column: Selectivity of^a: / 12-bis-THA Cl2; Selectivity of^a: / Dequalinium; Selectivity of^a: / Penta-bola; Selectivity of^a: / Octa-bola; Selectivity of^a: / Octa-C8; Selectivity of^a: / Octa-C6

M. tuberculosis Bleupan [13] = type: in vivo, Galleria mellonella
[14] = EMR Staphylococcus aureus 16 NCTC 13277
[15] = VR Enterococcus faecalis NCTC 12201
[16] = Acinetobacter baumannii AYE, read-out: MIC
[17] = NCTC13277, EMR Staphylococcus aureus 16 NCTC 13277, read-out: MIC
[18] = NCTC12201, VR Enterococcus faecalis NCTC 12201, read-out: MIC
[19] = Candida albicans, read-out: MIC
[20] = Pichia kudriavzevii, read-out: MIC
[21] = Lodderomyces parapsilosis, read-out: MIC
[22] = Mycobacterium tuberculosis, read-out: MIC

| Compound | MIC (Klebsiella pneumoniae M6) [µg/mL] | MIC ([1]; Acinetobacter baumannii AYE) [µg/mL] | MIC [2] [µg/mL] | MIC [3] [µg/mL] | MIC [4] [µg/mL] | MIC [5, 14] [µg/mL] | MIC [6] [µg/mL] | MIC [7, 15] [µg/mL] | MIC (C. albicans 3179) [µg/mL] | nanoparticle formation (DLS) (Dynamic light scattering) | MIC (Klebsiella pneumoniae M6; read-out: MIC) [µg/mL] | MIC ([2]; ATCC17978, read-out: MIC) [µg/mL] | MIC ([3]; read-out: MIC) [µg/mL] | MIC ([6]; NCTC775, read-out: MIC) [µg/mL] | MIC (C. albicans 3179; [19]) [µg/mL] | MIC (C. krusei 3876; [20]) [µg/mL] | MIC (C. parapsilosis 3209; [21]) [µg/mL] | MIC (C. parapsilosis; [21]) [µg/mL] | Selectivity index [10] | Selectivity index [11] | also measured |
| --- | --- | --- | --- | --- | --- | --- | --- | --- | --- | --- | --- | --- | --- | --- | --- | --- | --- | --- | --- | --- | --- |
| Nc1c2c([n+](CCCCCCCCCCCC[n+]3c4c(c(N)c5ccccc53)CCCC4)c3ccccc13)CCCC2 [12-bis-THA Cl2, 12,12′-(Dodecane-1,12-diyl)-bis-(9-amino-1,2,3,4-tetrahydroacridinium) chloride] | 16 | 16 | 16 | 32 | 32 | 0.125 | 2 | 1 | 0.25 | to some extent | – | – | – | – | – | – | – | – | – | – | MIC (C. krusei 3876): 0.5 µg/mL; MIC (C. parapsilosis 3209): 1 µg/mL; MIC (C. parapsilosis): 2 µg/mL; MIC (M. tuberculosis Bleupan [8]): 0.87 µg/mL; concentration required to induce any conductance [9]: 90 µM |
| Cc1cc(N)c2ccccc2[n+]1CCCCCCCCCC[n+]1c(C)cc(N)c2ccccc21 [Dequalinium, dequalinium chloride, reference compound] | – | – | – | – | – | – | – | – | – | readily form nanoparticles | > 32 | 32 | > 32 | 32 | 0.5 | 1 | 4 | 8 | 0.69 | 2.65 | MIC [1, 16]: 32 µg/mL; MIC ([4]; NCTC13437, read-out: MIC): > 32 µg/mL; MIC [5, 17]: 4 µg/mL; MIC [7, 18]: 16 µg/mL; MIC (M. tuberculosis Bleupan [8]; [22]): 3.51 µg/mL; Selectivity index (M. tuberculosis Bleupan [12]): 6.35; concentration required to induce any conductance [9]: 90 µM; survival (M. tuberculosis Bleupan [13]; 0.1 mg/kg): lower survival; survival (M. tuberculosis Bleupan [13]; higher or lower doses than 0.1 mg/kg): indifferent |
| Nc1c2c([n+](CCCCCCCCCCCC[n+]3c4c(c(N)c5ccccc53)CCCCCC4)c3ccccc13)CCCCCC2 [Octa-bola] | – | – | – | – | – | – | – | – | – | readily form nanoparticles | 16 | 8 | 32 | 0.5 | 0.5 | 0.5 | 0.5 | 1 | 0.53 | 17.4 | MIC [1, 16]: 8 µg/mL; MIC ([4]; NCTC13437, read-out: MIC): 32 µg/mL; MIC [5, 17]: 0.125 µg/mL; MIC [7, 18]: 1 µg/mL; MIC (M. tuberculosis Bleupan [8]; [22]): 0.24 µg/mL; Selectivity index (M. tuberculosis Bleupan [12]): 17.3; infected larvae rescued (M. tuberculosis Bleupan [13]; 1 mg/kg): about half |
| Nc1c2c([n+](CCCCCCCCCCCC[n+]3c4c(c(N)c5ccccc53)CCC4)c3ccccc13)CCC2 [Penta-bola] | 32 | 32 | 16 | 32 | >32 | 0.5 | 4 | 1 | 0.25 | to some extent | – | – | – | – | – | – | – | – | – | – | MIC (C. krusei 3876): 0.5 µg/mL; MIC (C. parapsilosis 3209): 1 µg/mL; MIC (C. parapsilosis): 1 µg/mL; MIC (M. tuberculosis Bleupan [8]): 0.19 µg/mL |
| Cc1c(N)c2ccccc2[n+](CCCCCCCCCCCC[n+]2c(C)c(C)c(N)c3ccccc32)c1C [Quino-bola] | – | – | – | – | > 32 | – | – | – | – | – | 32 | 16 | > 32 | 4 | 0.25 | 1 | 0.5 to 2 | 2 | 0.55 | 8.94 | MIC ([1]; Acinetobacter baumannii): 32 µg/mL; MIC ([5]; Staphylococcus aureus, NCTC13277): 1 µg/mL; MIC ([7]; Enterococcus faecalis, NCTC12201): 2 µg/mL |
